Source: patent US20230391727A1, “ANALOGUES OF PENTAMIDINE AND METHODS FOR TREATING INFECTIONS” (Auransa Inc., priority 2020, published 2023)
Converted amounts (≈) assume the structure as drawn.

Legend:
[1] = Anti-fungal MIC assay, summary of first round; type: cell-based; details: read-out: Isolate MIC (100%); range over isolates of the first round of testing
Protocol: The first round of testing included Candida parapsilosis, Candida krusei, Paecilomyces variotii, Candida albicans, Aspergillus fumigatus, and Blastomyces dermatitidis. […] The second round of testing included Candida parapsilosis, Candida krusei, Candida albicans, Candida auris, Candida glabrata, Candida guilliermondii, and Cryptococcus neoformans.
Stock solutions of the investigational agent were prepared at concentrations 100-times the highest concentration to be tested (6400 μg/ml) using dimethyl sulfoxide. Aliquots of the stock solutions were dispensed into polystyrene vials and stored at −20° C.
The synthetic medium RPMI-1640 (with glutamine, without bicarbonate, and with phenol red) was used. The RPMI was buffered to a pH of 7.0+0.1 at 25° C. with 0.165M MOPS (3-[N-morpholino] propanesulfonic acid). Sterile U-shaped 96-well cell culture plates were used to perform the MIC assays. […]
Fungal isolates were grown on Sabouraud dextrose agar (yeasts) or potato flake agar (filamentous fungi) and cells were collected after an appropriate period of growth for each species being evaluated (e.g., 48-72 hours for yeasts and 7 days for filamentous fungi). The fungi were suspended in sterile distilled water, and the densities of the fungal suspension were read using a spectrophotometer and adjusted to an appropriate optical density specific for each fungal species. […]

[2] = tested on: S. aureus VRS-2; assay: S. aureus VRS-2 peritonitis infection model; type: in vivo, female ICR mice
Protocol: The efficacy of compound 3 was evaluated in the S. aureus VRS-2 peritonitis infection model. The test article, compound 3 at 0.1, 0.3 and 1 mg/kg, was intraperitoneally (IP) administered twice at 2 and 16 h after infection; as well as once at 2 mg/kg at 2 h post-infection. The control reference agent, linezolid at 50 mg/kg, was orally (PO) administered once at 1 h post-infection. […] All animals in the vehicle group succumbed to infection between Day 1 to Day 2, resulting in 100% mortality, and a mean 15 h survival time. […] In the compound 3 at 1 mg/kg IP BID dose group, one out of eight animals survived till Day 7 of the study period, resulting in 13% survival rate, and a mean 33 h survival time.
For efficacy testing, the 0.4 mg/mL compound 3 solution was prepared by dissolving 1.21 mg of compound 3, corresponding to active ingredient of 1.02 mg with a correction factor of 1.19, in 2.55 mL of WFI. The 0.4 mg/mL compound 3 working solution was further diluted with WFI to generate three lower dosing solutions of 0.2, 0.06 and 0.02 mg/mL. All dosing solutions were soluble and colorless.
PDS supplied vancomycin and linezolid as reference controls for both MIC and in vivo studies. […] The 3.2 mg/mL linezolid 50× stock solution was prepared by dissolving 1.0 mg of linezolid in 0.313 mL of DMSO. Both solutions were colorless and soluble. For efficacy testing, one tablet of linezolid, at 600 mg, was dissolved in 12 mL of 1% Tween 80 in saline (0.9% NaCl) to generate a 50 mg/mL of stock solution. The 50 mg/mL linezolid stock solution was further diluted with 1% Tween 80 in 0.9% NaCl to generate the dosing solution of 5 mg/mL. Both solutions were insoluble with white color.
The S. aureus strain VRS-2 peritonitis infection model was performed with immunocompetent female ICR mice, weighing 22±2 g. All animals were specific pathogen free. The PDS standard protocol for preparing S. aureus cultures for mouse infection studies was followed. A 0.2 mL aliquot of a single-use glycerol stock (at −80° C.) was used to seed […] heart infusion (BHI) and then incubated at 35-37° C. with shaking (250 rpm) for 8 h. Bacterial cells in the 20 mL was pelleted by centrifugation (3,500×g) for 15 minutes, and then re-suspended in 10 mL cold phosphate buffer saline (PBS). The optical density, OD620 nm, was measured and used to guide dilution. The PBS suspensions were stored on ice for no more than 1 h prior to animal inoculation. The dilutions were performed by 1:1 dilution of BHI broth containing hog gastric mucin to obtain the target inoculum density, 1×10^8 CFU/mouse, per 0.5 mL with 5% mucin (final concentration). The actual colony count was determined by plating dilutions to nutrient agar (NA) plates followed by 20-24 h incubation at 35-37° C.
On Day 0, animals were infected with bacterial suspension with 5% mucin by intraperitoneal injection. The actual inoculum was 1.93×10^8 CFU/mouse with a target inoculum of 1×10^8 CFU/mouse in the peritonitis infection model. Test article, compound 3, was formulated in WFI and intraperitoneally (IP) administered with the dose schedule and concentrations indicated in the study design. Doses were administered once at 2 h post-infection or twice (BID) at 2 and 16 h post-infection. The animals were monitored for survival up to 7 days, twice daily (AM 9:00/PM 17:00). […]
Animals were monitored for mortality twice daily (AM 9:00/PM 17:00) for 7 days after infection. […]

Molecule `N=C(N)c1ccc(CC[C@H]2CCC[C@@H](CCc3ccc(C(=N)N)cc3)C2)cc1` [Compound 3, 4,4′-(2,2′-((1R,3S)-cyclohexane-1,3-diyl)bis(ethane-2,1-diyl))dibenzimidamide] has an MIC [1] of 1 to 64 µg/mL (≈ 2.66 to 170 µM), a mean survival time ([2]; 1 mg/kg IP BID (2 and 16 h after infection)) of 33 h and a survival rate ([2]; 1 mg/kg IP BID (2 and 16 h after infection), Day 7) of 13%. For the same molecule, the mortality ([2]; 0.1 and 0.3 mg/kg IP BID, and single dose of 2 mg/kg) was 100%.
